# Data taken from ChEMBL document CHEMBL1201862, “PubChem BioAssay data set” (2004).
# Calls of active or inactive are those of the source.
# Columns and labels:
# [1] = target: T1, Heat shock factor protein 1 (Mus musculus, UniProt P38532); test: enhancement of HSF1-driven luciferase signal – cell-based, NIH3T3, luminescence, dose retest, confirmation (AID 435004); format: functional;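 note: stress induced by proteasome inhibitor MG132 added 30 min after compound; luciferase reporter driven by HSF1 response element in NIH3T3 cells; actives raise luminescence as potentiators of the MG132 stress response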
# T1 sequence (P38532 whole entry): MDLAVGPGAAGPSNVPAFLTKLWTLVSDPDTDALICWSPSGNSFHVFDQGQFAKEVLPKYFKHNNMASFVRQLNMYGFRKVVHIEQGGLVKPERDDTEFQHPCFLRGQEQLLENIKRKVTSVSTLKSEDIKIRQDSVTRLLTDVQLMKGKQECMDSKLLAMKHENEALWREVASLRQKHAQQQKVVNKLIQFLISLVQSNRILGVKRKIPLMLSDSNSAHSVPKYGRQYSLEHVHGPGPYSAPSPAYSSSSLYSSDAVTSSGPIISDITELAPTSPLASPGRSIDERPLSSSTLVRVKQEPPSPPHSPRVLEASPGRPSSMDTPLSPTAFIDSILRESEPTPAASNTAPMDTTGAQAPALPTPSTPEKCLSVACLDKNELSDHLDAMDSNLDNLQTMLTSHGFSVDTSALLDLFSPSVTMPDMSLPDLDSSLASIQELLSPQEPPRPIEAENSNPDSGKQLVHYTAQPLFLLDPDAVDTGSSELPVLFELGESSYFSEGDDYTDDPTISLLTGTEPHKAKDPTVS
# [2] = alpha-synuclein stem-loop luciferase translation blockers – H4 neuroglioma cells, luminescence, confirmation (AID 1988); format: functional, cell-based
# [3] = Luminescence Cell-Based Dose Response HTS to Identify Inhibitors of 5'UTR Stem-Loop Driven Prion Protein mRNA Translation in H4 Neuroglioblastoma Cells. [Related pubchem assays: 1827 (Project Summary), 1813 (Primary HTS)]; format: functional
# [4] = luciferase reporter signal suppression in cells – H4 neuroglioma cells, luminescence, dose response (AID 1990); format: functional, cell-based
# [5] = viability of HCT116 lacking mutant beta-catenin – cell-based, human colon tumor, dose response (AID 1045); format: functional;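 note: HCT116 colon tumor cells with beta catenin knocked out; cells exposed to compound for 60 hours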
# [6] = viability of PTEN-deleted HCT116 cells – cell-based, HCT116 PTEN knockout, dose response (AID 1047); format: functional;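 note: HCT116 colon tumor cells with PTEN knocked out; cells exposed to compound for 60 hours before readout; potency for loss of cell viability measured by luminescence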
# [7] = Luminescence Cell-Based Dose Retest to Confirm Inhibitors of Cancer Stem Cells. [Related pubchem assays (depositor defined):AID2717, AID2721]; format: functional; conditions: Homo sapiens
# [8] = microbe, parasite or virus in culture; format: functional; conditions: Mycobacterium tuberculosis
# [9] = NIH3T3 cell viability loss – ATP luminescence, mouse fibroblasts, counter-screen, dose response (AID 2010); format: functional, cell-based;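 note: cells exposed to compound for about 90 hours before reading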
# [10] = Trypanosoma cruzi growth suppression in host cells – NIH3T3 host cells, beta-gal luminescence, confirmation (AID 2044); format: functional, cell-based;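 note: intracellular parasites grown in NIH/3T3 mouse fibroblasts as host cells; luminescent beta-galactosidase reporter signal from transgenic T. cruzi replicating inside host cells; inhibitors lower the luminescence signal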
# [11] = target: T2, Rac GTPase-activating protein 1 (Homo sapiens, UniProt Q9H0H5); test: blockers of MgcRacGAP-driven Rac1 GTP hydrolysis – biochemical, ADP Hunter fluorescence, primary and confirmatory, confirmation (AID 624330); format: functional
# T2 sequence (Q9H0H5 whole entry): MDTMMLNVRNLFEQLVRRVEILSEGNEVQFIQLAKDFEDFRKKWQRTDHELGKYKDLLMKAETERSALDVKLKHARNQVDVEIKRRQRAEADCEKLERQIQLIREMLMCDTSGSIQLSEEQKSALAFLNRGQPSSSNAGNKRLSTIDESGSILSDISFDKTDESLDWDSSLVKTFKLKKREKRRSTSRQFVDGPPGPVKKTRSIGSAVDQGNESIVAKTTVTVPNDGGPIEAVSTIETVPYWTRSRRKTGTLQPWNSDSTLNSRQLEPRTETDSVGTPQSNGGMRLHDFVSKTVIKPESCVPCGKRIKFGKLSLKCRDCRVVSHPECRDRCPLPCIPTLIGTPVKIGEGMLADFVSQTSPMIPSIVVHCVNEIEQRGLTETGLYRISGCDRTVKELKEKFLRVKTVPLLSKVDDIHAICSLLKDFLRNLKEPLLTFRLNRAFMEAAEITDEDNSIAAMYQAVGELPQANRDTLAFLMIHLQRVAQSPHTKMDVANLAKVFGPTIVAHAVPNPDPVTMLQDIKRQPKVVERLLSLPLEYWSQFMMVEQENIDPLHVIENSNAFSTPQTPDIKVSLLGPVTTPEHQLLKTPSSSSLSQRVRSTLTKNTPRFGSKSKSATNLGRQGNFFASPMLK
# [12] = system: INS1; test: INS-1E survival protection against cytokine death – cell-based, luminescence, retest, dose response (AID 449756); format: functional; conditions: Rattus norvegicus;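 note: cell death triggered by IL-1 beta plus TNF-alpha plus IFN-gamma mixture; protective hits raise ATP signal compared with cytokine alone wells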
# [13] = target: T3, Corticotropin-releasing factor receptor 2/Corticotropin-releasing factor-binding protein (Homo sapiens, UniProt P24387+Q13324); test: Dose Response confirmation of uHTS hits for small molecule antagonists of the CRF-binding protein and CRF-R2 receptor complex.; format: functional; conditions: read-out: IC50_Mean
# T3 sequence (Q13324 whole entry): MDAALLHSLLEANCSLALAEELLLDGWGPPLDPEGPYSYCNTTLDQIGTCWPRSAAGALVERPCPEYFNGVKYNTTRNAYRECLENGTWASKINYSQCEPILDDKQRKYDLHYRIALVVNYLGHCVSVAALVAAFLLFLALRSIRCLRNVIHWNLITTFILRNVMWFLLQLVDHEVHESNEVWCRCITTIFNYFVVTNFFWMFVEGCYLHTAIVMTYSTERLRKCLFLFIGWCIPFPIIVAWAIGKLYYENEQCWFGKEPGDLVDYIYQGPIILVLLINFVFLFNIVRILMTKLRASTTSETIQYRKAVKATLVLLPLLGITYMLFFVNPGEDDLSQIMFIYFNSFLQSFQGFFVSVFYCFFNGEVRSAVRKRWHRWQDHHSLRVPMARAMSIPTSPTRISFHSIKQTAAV
# T3 sequence (P24387 whole entry): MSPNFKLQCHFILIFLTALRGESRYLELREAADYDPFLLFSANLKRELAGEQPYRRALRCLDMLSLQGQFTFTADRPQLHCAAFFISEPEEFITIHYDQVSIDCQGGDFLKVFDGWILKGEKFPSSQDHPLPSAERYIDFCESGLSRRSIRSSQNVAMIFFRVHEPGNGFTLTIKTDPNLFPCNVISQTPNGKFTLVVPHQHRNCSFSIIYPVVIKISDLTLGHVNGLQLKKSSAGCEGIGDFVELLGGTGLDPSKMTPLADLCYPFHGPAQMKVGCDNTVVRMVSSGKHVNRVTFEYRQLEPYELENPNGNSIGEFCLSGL
# [14] = target: T3, Corticotropin-releasing factor receptor 2/Corticotropin-releasing factor-binding protein; test: activators of CRF receptor 2 with binding protein – uHTS hits, confirmation (AID 602473); format: functional; conditions: read-out: EC50_Mean
# [15] = cells; format: functional
smiles,measurement,setting,value
S=c1[nH]cc(-c2ccccc2)n1-c1ccccc1Cl,EC50,[1],> 260 µM (inactive)
Cc1ccc(CS(=O)(=O)Cc2ccc(C(=O)NC3CCCCCC3)o2)cc1,EC50,[2],22.5 µM (active)
same,EC50,[3],> 120 µM (not active)
same,EC50,[4],24.3 µM (active)
O=C(Nc1cccc(Cl)c1)c1cccc(Oc2ccc([N+](=O)[O-])cc2Cl)c1,EC50,[5],17.1 µM (active)
same,EC50,[6],16.1 µM (active)
COc1ccc(C2c3c(oc4ccccc4c3=O)C(=O)N2c2ccccn2)cc1OC (configuration not stated),EC50,[5],20.7 µM (active)
same,EC50,[6],17.2 µM (active)
CCC1(CC)NC(=O)N(CC(=O)N2N=C(c3ccc(Cl)cc3)CC2c2ccco2)C1=O (configuration not stated),EC50,[2],> 120 µM (not active)
same,EC50,[3],> 120 µM (not active)
same,EC50,[4],> 120 µM (not active)
O=[N+]([O-])c1ccc(COc2ccc(-c3[nH]ncc3-c3ccc(Cl)cc3)c(O)c2)cc1,AC50,[7],4.02 µM (active)
same,CC50,[8],> 40 µM (active)
CCN1CCN(c2ccc(NC(=O)CCc3c(C)nc4c(-c5ccc(F)cc5)c(C)nn4c3C)cc2)CC1,AC50,[7],2.15 µM (active)
same,EC50,[9],32.4 µM (active)
same,EC50,[10],1.48 µM (active)
C=CCNC(=S)Nc1ccc(OC(=O)Nc2ccc(Cl)c(Cl)c2)cc1,IC50,[11],89 µM (active)
COc1ccc(CSc2nc(N3CCOCC3)c3c(c2C#N)CC(C)(C)OC3)cc1,EC50,[2],> 120 µM (not active)
same,EC50,[3],> 120 µM (not active)
same,EC50,[9],> 60 µM (not active)
same,EC50,[10],2.52 µM (active)
same,EC50,[4],18.5 µM (active)
CCOc1ccc(Nc2nc(Cc3nnc(SCC(=O)c4ccc(C)c(C)c4)o3)cs2)cc1,AC50,[12],10.4 µM (active)
CCn1c(C(=O)O)c(CC(=O)Nc2cccc(C(F)(F)F)c2)c2ccccc21,AC50,[7],15.3 µM (active)
Cc1c(Cl)ccc2c1NC(=O)C21NC(CCC(N)=O)[C@H]2C(=O)N(c3ccc(Cl)cc3)C(=O)[C@H]21 (some centres not stated),IC50,[13],> 47.1 µM (inactive)
same,EC50,[14],> 53 µM (inactive)
same,EC50,[1],> 260 µM (inactive)
Cc1ccc2c(CN3CCN(S(=O)(=O)/C=C/c4ccccc4)CC3)cc(=O)oc2c1,EC50,[1],> 260 µM (inactive)
CC(=O)Nc1ccc(OC(=O)c2ccc(Br)c([N+](=O)[O-])c2)cc1,IC50,[11],36.4 µM (active)
same,IC50,[15],10.1 µM (active)
CC1(C)Cc2c(c(N3CCOCC3)nc3sc4c(NCc5ccccc5)nnnc4c23)CS1,EC50,[2],10.6 µM (active)
same,EC50,[3],20.8 µM (active)
same,EC50,[9],> 60 µM (not active)
same,EC50,[10],1.13 µM (active)
same,EC50,[4],25 µM (active)
Cc1cccc(N/N=C/c2ccccc2O)c1,AC50,[7],6.21 µM (active)
CCOc1ccc(/C=N/NC(=O)C(C)N(c2ccc(OC)cc2)S(C)(=O)=O)cc1 (configuration not stated),EC50,[1],> 260 µM (inactive)
